Assay [1] deals with pSLP76(S376) level in Jurkat cell line. The assay is described as follows: Cellular pSLP76(S376) HTRF Assay. The assay is classed as cell-based. The note with it: Homo sapiens, Jurkat, Jurkat cells, 2 h compound treatment, stimulated with 0.05 μg/mL anti-human CD3 (OKT3) for 30 min. On the technique in general: In TR-FRET formats the signal depends on donor and acceptor labels being close together.

The target of assay [2] is HPK1 kinase (aal-346. Life Technologies) (Homo sapiens (Human), UniProt Q92918). The experiment in a line: HPK Kinase Activity Assay at 1 mM ATP (TR-FRET). The assay is classed as biochemical. To be noted: HPK1 kinase 40 nM, 0.5 μM STK1 substrate, read-out: Enzymatic activity IC50.
Chain of HPK1 kinase (aal-346. Life Technologies) (Q92918 1-346): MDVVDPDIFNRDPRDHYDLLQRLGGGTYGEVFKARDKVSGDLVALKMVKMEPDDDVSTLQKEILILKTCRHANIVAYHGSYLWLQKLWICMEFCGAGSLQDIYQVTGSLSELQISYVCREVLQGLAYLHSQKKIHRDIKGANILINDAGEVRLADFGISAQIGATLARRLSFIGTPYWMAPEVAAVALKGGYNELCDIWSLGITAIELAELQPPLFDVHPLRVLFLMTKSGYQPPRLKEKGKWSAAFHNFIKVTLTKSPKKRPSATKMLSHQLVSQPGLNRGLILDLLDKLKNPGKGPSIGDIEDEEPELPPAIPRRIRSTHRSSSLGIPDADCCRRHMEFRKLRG

The values that follow come from patent US20240317714A1, “3-[(1H-PYRAZOL-R-YL)OXY]PYRAZIN-2-AMINE COMPOUNDS AS HPK1 INHIBITOR AND USE THEREOF” (BeiGene, Ltd., priority 2020, published 2024).

Turning to `Cc1cc(-c2cnc(N)c(Oc3cnn(C4CCN(C)CC4)c3)n2)cc(C)c1CNC(=O)NCC(F)(F)F` [Example A51, 1-(4-(5-amino-6-((1-(1-methylpiperidin-4-yl)-1H-pyrazol-4-yl)oxy)pyrazin-2-yl)-2,6-dimethylbenzyl)-3-(2,2,2-trifluoroethyl)urea], the half-maximal inhibitory concentration (IC50) (as a rule, the point on the concentration scale where inhibition reaches its midpoint) in assay [1] was determined as 101 nM; in assay [2], 46 nM.

For `Cc1cc(-c2cnc(N)c(Oc3cnn(C4CCN(C)CC4)c3)n2)cc(C(C)(C)O)c1` [Example A52, 2-(3-(5-amino-6-((1-(1-methylpiperidin-4-yl)-1H-pyrazol-4-yl)oxy)pyrazin-2-yl)-5-methylphenyl)propan-2-ol], the IC50 turned out to be 118 nM in assay [1] and 70 nM in assay [2].

With `Cc1cc(-c2cnc(N)c(Oc3cnn(C4CCN(C)CC4)c3)n2)cc(C)c1CNC(=O)NC(C)(C)C` [Example A53, 1-(4-(5-amino-6-((1-(1-methylpiperidin-4-yl)-1H-pyrazol-4-yl)oxy)pyrazin-2-yl)-2,6-dimethylbenzyl)-3-(tert-butyl)urea], the concentration for half-maximal inhibition (IC50) is 63 nM in assay [1] and 16 nM in assay [2].

For `Cc1cc(-c2cnc(N)c(Oc3cnn(C4CCN(C)CC4)c3)n2)cc(C2(O)COC2)c1` [Example A54, 3-(3-(5-amino-6-((1-(1-methylpiperidin-4-yl)-1H-pyrazol-4-yl)oxy)pyrazin-2-yl)-5-methylphenyl)oxetan-3-ol], the results for the half-maximal inhibitory concentration (IC50) in assay [1] and in assay [2] were 33 nM and 10 nM, respectively.

Turning to `Cc1cc(-c2cnc(N)c(Oc3cnn(C4CCN(C)CC4)c3)n2)cc(C)c1CNC1COC1` [Example A55, 5-(3,5-dimethyl-4-((oxetan-3-ylamino)methyl)phenyl)-3-((1-(1-methylpiperidin-4-yl)-1H-pyrazol-4-yl)oxy)pyrazin-2-amine], the IC50 was found to be 111 nM in assay [1] and 34 nM in assay [2].

For the compound `Cc1cc(-c2cnc(N)c(Oc3cnn(C4CCN(C)CC4)c3)n2)cc(C)c1CNc1ccn(C)n1` [Example A56, 5-(3,5-dimethyl-4-(((1-methyl-1H-pyrazol-3-yl)amino)methyl)phenyl)-3-((1-(1-methylpiperidin-4-yl)-1H-pyrazol-4-yl)oxy)pyrazin-2-amine], the values for the IC50 in assay [1] and in assay [2] were 85 nM and 53 nM, respectively.

Take `Cc1cc(-c2cnc(N)c(Oc3cnn(C4CCN(C)CC4)c3)n2)cc(C)c1CNc1cnn(C)c1` [Example A57, 5-(3,5-dimethyl-4-(((1-methyl-1H-pyrazol-4-yl)amino)methyl)phenyl)-3-((1-(1-methylpiperidin-4-yl)-1H-pyrazol-4-yl)oxy)pyrazin-2-amine]: the results for the IC50 in assay [1] and in assay [2] were 76 nM and 24 nM, respectively.

Regarding `Cc1cc(-c2cnc(N)c(Oc3cnn(C4CCN(C)CC4)c3)n2)cc(C2(O)CCOCC2)c1` [Example A58, 4-(3-(5-amino-6-((1-(1-methylpiperidin-4-yl)-1H-pyrazol-4-yl)oxy)pyrazin-2-yl)-5-methylphenyl)tetrahydro-2H-pyran-4-ol], the IC50 came out at 69 nM in assay [1] and 29 nM in assay [2].

Turning to `C[C@@H]1COCCN1c1cc(-c2cnc(N)c(Oc3cnn(C4CCN(C)CC4)c3)n2)cc(C2(O)COC2)c1` [Example A59, (R)-3-(3-(5-amino-6-((1-(1-methylpiperidin-4-yl)-1H-pyrazol-4-yl)oxy)pyrazin-2-yl)-5-(3-methylmorpholino)phenyl)oxetan-3-ol], the concentration for half-maximal inhibition (IC50) in assay [1] was 51 nM; in assay [2], 8.2 nM.

Take `Cc1cc(-c2cnc(N)c(Oc3cnn(C4CCN(C)CC4)c3)n2)cc(C)c1CNC1(C)COC1` [Example A60, 5-(3,5-dimethyl-4-(((3-methyloxetan-3-yl)amino)methyl)phenyl)-3-((1-(1-methylpiperidin-4-yl)-1H-pyrazol-4-yl)oxy)pyrazin-2-amine]: the IC50 in assay [1] came out at 91 nM; in assay [2], 40 nM.

As to `Cc1cc(-c2cnc(N)c(Oc3cnn(C4CCN(C)CC4)c3)n2)cc([C@@H]2CCC(=O)N2)c1` [Example A61B, (S)-5-(3-(5-amino-6-((1-(1-methylpiperidin-4-yl)-1H-pyrazol-4-yl)oxy)pyrazin-2-yl)-5-methylphenyl)pyrrolidin-2-one], the values for the IC50 in assay [1] and in assay [2] were 44 nM and 10 nM, respectively.

For the compound `Cc1cc(-c2cnc(N)c(Oc3cnn(C4CCN(C)CC4)c3)n2)cc(C)c1CNS(=O)(=O)N(C)C` [Example A62, 5-(4-[[(dimethylsulfamoyl)amino]methyl]-3,5-dimethylphenyl)-3-[[1-(1-methylpiperidin-4-yl)pyrazol-4-yl]oxy]pyrazin-2-amine], the figures for the concentration for half-maximal inhibition (IC50) in assay [1] and in assay [2] were 79 nM and 48 nM, respectively.

Regarding `Cc1cc(-c2cnc(N)c(Oc3cnn(C4CCN(C)CC4)c3)n2)cc(C)c1C1(O)COC1` [Example A63, 3-(4-(5-amino-6-((1-(1-methylpiperidin-4-yl)-1H-pyrazol-4-yl)oxy)pyrazin-2-yl)-2,6-dimethylphenyl)oxetan-3-ol], the IC50 was 102 nM in assay [1] and 39 nM in assay [2].

On to `Cc1cc(-c2cnc(N)c(Oc3cnn(C4CCN(C)CC4)c3)n2)cc(C)c1CNC(=O)NC1(C(F)(F)F)CC1` [Example A64, 1-(4-(5-amino-6-((1-(1-methylpiperidin-4-yl)-1H-pyrazol-4-yl)oxy)pyrazin-2-yl)-2,6-dimethylbenzyl)-3-(1-(trifluoromethyl)cyclopropyl)urea], for which the IC50 is 45 nM in assay [1] and 16 nM in assay [2].

For `Cc1cc(-c2cnc(N)c(Oc3cnn(C4CCN(C)CC4)c3)n2)cc(C2(O)CCCC2)c1` [Example A65, 1-(3-(5-amino-6-((1-(1-methylpiperidin-4-yl)-1H-pyrazol-4-yl)oxy)pyrazin-2-yl)-5-methylphenyl)cyclopentan-1-ol], the results for the half-maximal inhibitory concentration (IC50) in assay [1] and in assay [2] were 84 nM and 18 nM, respectively.

For `Cc1cc(-c2cnc(N)c(Oc3cnn(C4CCN(C)CC4)c3)n2)cc(C)c1N1CCOCC1` [Example A66, 5-(3,5-dimethyl-4-morpholinophenyl)-3-((1-(1-methylpiperidin-4-yl)-1H-pyrazol-4-yl)oxy)pyrazin-2-amine], the figures for the IC50 in assay [1] and in assay [2] were 132 nM and 36 nM, respectively.

Regarding `Cc1cc(-c2cnc(N)c(Oc3cnn(C4CCN(C)CC4)c3)n2)cc(C)c1CNc1ncco1` [Example A67, N-(4-(5-amino-6-((1-(1-methylpiperidin-4-yl)-1H-pyrazol-4-yl)oxy)pyrazin-2-yl)-2,6-dimethylbenzyl)oxazol-2-amine], the half-maximal inhibitory concentration (IC50) amounted to 76 nM in assay [1] and 17 nM in assay [2].

With `Cc1cc(-c2cnc(N)c(Oc3cnn(C4CCN(C)CC4)c3)n2)cc(C)c1CNc1ncn(C)n1` [Example A68, 5-(3,5-dimethyl-4-(((1-methyl-1H-1,2,4-triazol-3-yl)amino)methyl)phenyl)-3-((1-(1-methylpiperidin-4-yl)-1H-pyrazol-4-yl)oxy)pyrazin-2-amine], the figures for the half-inhibitory concentration (IC50) in assay [1] and in assay [2] were 157 nM and 51 nM, respectively.

For the compound `Cc1cc(-c2cnc(N)c(Oc3cnn(C4CCN(C)CC4)c3)n2)cc(C2(O)CCOC2)c1` (stereo not drawn) [Example A69, 3-(3-(5-amino-6-((1-(1-methylpiperidin-4-yl)-1H-pyrazol-4-yl)oxy)pyrazin-2-yl)-5-methylphenyl)tetrahydrofuran-3-ol], the 50% inhibitory concentration (IC50) in assay [1] was 84 nM; in assay [2] it was 57 nM.

As for `CCC(C)(O)c1cc(C)cc(-c2cnc(N)c(Oc3cnn(C4CCN(C)CC4)c3)n2)c1` (stereo not drawn) [Example A70, 2-(3-(5-amino-6-((1-(1-methylpiperidin-4-yl)-1H-pyrazol-4-yl)oxy)pyrazin-2-yl)-5-methylphenyl)butan-2-ol], the results for the 50% inhibitory concentration (IC50) in assay [1] and in assay [2] were 76 nM and 6.7 nM, respectively.

Consider `Cc1cc(-c2cnc(N)c(Oc3cnn(C4CCN(C)CC4)c3)n2)cc(C)c1CNS(=O)(=O)N1CCOCC1` [Example A71, N-(4-(5-amino-6-((1-(1-methylpiperidin-4-yl)-1H-pyrazol-4-yl)oxy)pyrazin-2-yl)-2,6-dimethylbenzyl)morpholine-4-sulfonamide], for which the IC50 in assay [1] was determined as 39 nM; in assay [2], 26 nM.

With `CN1CCC(n2cc(Oc3nc(-c4cc(N5CCOCC5)cc(C5(O)COC5)c4)cnc3N)cn2)CC1` [Example A72, 3-(3-(5-amino-6-((1-(1-methylpiperidin-4-yl)-1H-pyrazol-4-yl)oxy)pyrazin-2-yl)-5-morpholinophenyl)oxetan-3-ol], the concentration for half-maximal inhibition (IC50) in assay [1] is 59 nM; in assay [2], 5.6 nM.

`Cc1cc(-c2cnc(N)c(Oc3cnn(C4CCN(C)CC4)c3)n2)cc(C2(O)COC2)c1C` [Example A73, 3-(5-(5-amino-6-(1-(1-methylpiperidin-4-yl)-1H-pyrazol-4-yloxy)pyrazin-2-yl)-2,3-dimethylphenyl)oxetan-3-ol]: the 50% inhibitory concentration (IC50) in assay [1] was found to be 59 nM; in assay [2], 11 nM.

Turning to `Cc1cc(-c2cnc(N)c(Oc3cnn(C4CCN(C)CC4)c3)n2)cc([C@]2(O)CCOC2)c1` [Example A74B, (R)-3-(3-(5-amino-6-((1-(1-methylpiperidin-4-yl)-1H-pyrazol-4-yl)oxy)pyrazin-2-yl)-5-methylphenyl)tetrahydrofuran-3-ol], the results for the half-inhibitory concentration (IC50) in assay [1] and in assay [2] were 41 nM and 10 nM, respectively.

As for `Cc1cc(-c2cnc(N)c(Oc3cnn(C4CCN(C)CC4)c3)n2)cc(C)c1C1=CCOCC1` [Example A75, 5-(4-(3,6-dihydro-2H-pyran-4-yl)-3,5-dimethylphenyl)-3-((1-(1-methylpiperidin-4-yl)-1H-pyrazol-4-yl)oxy)pyrazin-2-amine], the IC50 stood at 129 nM in assay [1] and 29 nM in assay [2].

Take `COC[C@@H]1COCCN1c1cc(-c2cnc(N)c(Oc3cnn(C4CCN(C)CC4)c3)n2)cc(C2(O)COC2)c1` [Example A76, (R)-3-(3-(5-amino-6-((1-(1-methylpiperidin-4-yl)-1H-pyrazol-4-yl)oxy)pyrazin-2-yl)-5-(3-(methoxymethyl)morpholino)phenyl)oxetan-3-ol]: the half-inhibitory concentration (IC50) was 62 nM in assay [1] and 5.8 nM in assay [2].

For `Cc1cc(-c2cnc(N)c(Oc3cnn(C4CCN(C)CC4)c3)n2)cc(C)c1N1CC2(COC2)C1` [Example A77, 5-(3,5-dimethyl-4-(2-oxa-6-azaspiro[3.3]heptan-6-yl)phenyl)-3-((1-(1-methylpiperidin-4-yl)-1H-pyrazol-4-yl)oxy)pyrazin-2-amine], the results for the half-inhibitory concentration (IC50) in assay [1] and in assay [2] were 91 nM and 38 nM, respectively.
